Reference: ChEMBL document CHEMBL4814047, “Design, synthesis and biological activity of N-(amino)piperazine-containing benzothiazinones against Mycobacterium tuberculosis” (Eur J Med Chem, 2021)
Converted amounts (≈) assume the structure as drawn.

Tests used:
[1] = test system: Mycobacterium tuberculosis; assay: Antimycobacterial activity against Mycobacterium tuberculosis H37Rv ATCC 27294 incubated for 7 days by microplate alamar blue assay; assay type: functional; conditions: H37Rv ATCC 27294, 168 h, time 7 day
hERG (KCNH2) = hERG (KCNH2) (Homo sapiens, UniProt Q12809); assay: Inhibition of human ERG expressed in HEK293 cells at 10 uM by whole cell patch clamp method relative to control; assay type: cell-based; conditions: HEK293 cells expressing hERG
[2] = Cytotoxicity against African green monkey Vero cells incubated for 72 hrs by MTT assay; assay type: cell-based; conditions: chlorocebus sabaeus
[3] = MRT in ICR mouse at 25 mg/kg, po measured upto 24 hrs by HPLC analysis; assay type: ADME, organism-based; conditions: in vivo
[4] = Cmax in ICR mouse at 25 mg/kg, po measured upto 24 hrs by HPLC analysis; assay type: ADME, organism-based; set-up: route oral, dose 25 mg/kg, time <=24; conditions: in vivo
[5] = Tmax in ICR mouse at 25 mg/kg, po measured upto 24 hrs by HPLC analysis; assay type: ADME, organism-based; conditions: in vivo
[6] = Half life in ICR mouse at 25 mg/kg, po measured upto 24 hrs by HPLC analysis; assay type: ADME, organism-based; conditions: in vivo
[7] = AUC (0 to infinity) in ICR mouse at 25 mg/kg, po measured upto 24 hrs by HPLC analysis; assay type: ADME, organism-based; set-up: route oral, dose 25 mg/kg, time <=24; conditions: in vivo

Chain of hERG (KCNH2) (Q12809 whole entry): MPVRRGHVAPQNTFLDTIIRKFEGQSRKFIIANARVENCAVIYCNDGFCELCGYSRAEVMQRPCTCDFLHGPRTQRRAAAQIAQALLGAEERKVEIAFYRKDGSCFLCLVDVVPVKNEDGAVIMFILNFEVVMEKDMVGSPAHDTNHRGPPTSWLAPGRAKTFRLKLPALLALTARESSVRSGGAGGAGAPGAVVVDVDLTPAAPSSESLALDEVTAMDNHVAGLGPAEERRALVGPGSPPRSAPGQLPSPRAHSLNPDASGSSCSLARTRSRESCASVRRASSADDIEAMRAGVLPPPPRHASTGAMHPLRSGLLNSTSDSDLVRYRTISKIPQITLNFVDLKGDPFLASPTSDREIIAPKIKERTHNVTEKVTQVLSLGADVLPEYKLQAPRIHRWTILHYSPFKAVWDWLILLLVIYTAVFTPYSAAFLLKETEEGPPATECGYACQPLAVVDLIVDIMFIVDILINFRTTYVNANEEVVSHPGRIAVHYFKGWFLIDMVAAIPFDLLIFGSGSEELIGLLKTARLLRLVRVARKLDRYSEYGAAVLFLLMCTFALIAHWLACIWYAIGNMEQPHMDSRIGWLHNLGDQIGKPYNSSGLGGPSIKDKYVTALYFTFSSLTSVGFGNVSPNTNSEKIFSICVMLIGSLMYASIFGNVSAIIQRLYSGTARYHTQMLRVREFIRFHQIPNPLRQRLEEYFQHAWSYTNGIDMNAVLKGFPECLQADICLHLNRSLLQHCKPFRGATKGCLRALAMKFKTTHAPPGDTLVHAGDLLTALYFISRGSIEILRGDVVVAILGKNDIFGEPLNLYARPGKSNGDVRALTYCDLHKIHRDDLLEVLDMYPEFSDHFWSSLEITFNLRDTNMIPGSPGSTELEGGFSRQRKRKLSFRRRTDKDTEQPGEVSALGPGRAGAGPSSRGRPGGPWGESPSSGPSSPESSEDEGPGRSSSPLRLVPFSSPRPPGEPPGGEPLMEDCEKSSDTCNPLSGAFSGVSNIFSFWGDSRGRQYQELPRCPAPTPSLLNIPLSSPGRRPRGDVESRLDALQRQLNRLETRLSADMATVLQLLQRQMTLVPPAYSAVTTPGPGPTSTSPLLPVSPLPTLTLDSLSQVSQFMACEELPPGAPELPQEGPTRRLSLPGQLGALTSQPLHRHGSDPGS

Compound	MIC [1] [µg/mL]	CC50 at 72 h [2] [µg/mL]	further results
O=c1nc(N2CCN(/N=C/c3ccc(OC(F)(F)F)cc3)CC2)sc2c([N+](=O)[O-])cc(C(F)(F)F)cc12	< 0.016	> 64	inhibition at 10 µM (hERG (KCNH2)): 88.2%
O=c1nc(NN2CCN(Cc3ccncc3)CC2)sc2c([N+](=O)[O-])cc(C(F)(F)F)cc12	> 1		
CC(NN1CCN(c2nc(=O)c3cc(C(F)(F)F)cc([N+](=O)[O-])c3s2)CC1)c1ccc(OC(F)(F)F)cc1 (stereo unspecified)	< 0.016	> 64	
O=c1nc(N2CCN(Nc3ccc(C(F)(F)F)cc3)CC2)sc2c([N+](=O)[O-])cc(C(F)(F)F)cc12	< 0.016	> 64	
O=c1nc(N2CCN(NCc3ccc(Br)cc3)CC2)sc2c([N+](=O)[O-])cc(C(F)(F)F)cc12	< 0.016	> 64	
O=c1nc(N2CCN(NCc3ccc(F)cc3)CC2)sc2c([N+](=O)[O-])cc(C(F)(F)F)cc12	< 0.016	> 64	
COc1ccc(CNN2CCN(c3nc(=O)c4cc(C(F)(F)F)cc([N+](=O)[O-])c4s3)CC2)cc1	< 0.016	> 64	
NN1CCN(c2nc(=O)c3cc(C(F)(F)F)cc([N+](=O)[O-])c3s2)CC1	0.941 (≈ 2.51 µM)		
CC(C)CN(CC(C)C)N1CCN(c2nc(=O)c3cc(C(F)(F)F)cc([N+](=O)[O-])c3s2)CC1	< 0.016	> 64	
O=c1nc(N2CCN(NCc3ccc(OC(F)(F)F)cc3)CC2)sc2c([N+](=O)[O-])cc(C(F)(F)F)cc12	< 0.016	> 64	inhibition at 10 µM (hERG (KCNH2)): 71.1%
O=C(C1CCCCC1)N1CCN(Nc2nc(=O)c3cc(C(F)(F)F)cc([N+](=O)[O-])c3s2)CC1	> 1		
O=C(NN1CCN(c2nc(=O)c3cc(C(F)(F)F)cc([N+](=O)[O-])c3s2)CC1)c1ccc(C(F)(F)F)cc1	0.589 (≈ 1.08 µM)		
O=c1nc(N2CCN(Nc3ccc(OC(F)(F)F)cc3)CC2)sc2c([N+](=O)[O-])cc(C(F)(F)F)cc12	< 0.016	> 64	inhibition at 10 µM (hERG (KCNH2)): 55.5%
O=c1nc(N2CCN(NCc3ccc(Cl)cc3)CC2)sc2c([N+](=O)[O-])cc(C(F)(F)F)cc12	< 0.016	> 64	
Cc1cccc(F)c1CNN1CCN(c2nc(=O)c3cc(C(F)(F)F)cc([N+](=O)[O-])c3s2)CC1	< 0.016	> 64	
CN(c1ccc(OC(F)(F)F)cc1)N1CCN(c2nc(=O)c3cc(C(F)(F)F)cc([N+](=O)[O-])c3s2)CC1	< 0.016	> 64	MRT [3]: 4.34 h; Cmax [4]: 1100 ng/mL; Tmax [5]: 0.667 h; half-life [6]: 3.6 h; AUC(0-inf) [7]: 4700 ng·h/mL; inhibition at 10 µM (hERG (KCNH2)): 45.6%
O=c1nc(N2CCN(NC3CCCCC3)CC2)sc2c([N+](=O)[O-])cc(C(F)(F)F)cc12	< 0.016	> 64	MRT [3]: 1.47 h; Cmax [4]: 1960 ng/mL; Tmax [5]: 0.583 h; half-life [6]: 1.28 h; AUC(0-inf) [7]: 4430 ng·h/mL; inhibition at 10 µM (hERG (KCNH2)): 20.4%
CON=C1CCC(N(C)N2CCN(c3nc(=O)c4cc(C(F)(F)F)cc([N+](=O)[O-])c4s3)CC2)CC1 (stereo unspecified)	< 0.016	> 64	MRT [3]: 3.89 h; Cmax [4]: 5140 ng/mL; Tmax [5]: 0.5 h; half-life [6]: 4.09 h; AUC(0-inf) [7]: 15800 ng·h/mL; inhibition at 10 µM (hERG (KCNH2)): 22.7%
O=c1nc(N2CCN(NCc3cccnc3)CC2)sc2c([N+](=O)[O-])cc(C(F)(F)F)cc12	0.228 (≈ 0.489 µM)		
O=c1nc(NN2CCN(Cc3ccc(OC(F)(F)F)cc3)CC2)sc2c([N+](=O)[O-])cc(C(F)(F)F)cc12	> 1		
Cc1ccc(CNN2CCN(c3nc(=O)c4cc(C(F)(F)F)cc([N+](=O)[O-])c4s3)CC2)cc1	< 0.016	> 64	
CN(CC1CCCCC1)N1CCN(c2nc(=O)c3cc(C(F)(F)F)cc([N+](=O)[O-])c3s2)CC1	< 0.016	> 64	inhibition at 10 µM (hERG (KCNH2)): 54.6%
O=c1nc(N2CCN(NCC3CCCC3)CC2)sc2c([N+](=O)[O-])cc(C(F)(F)F)cc12	< 0.016	> 64	

Compound	MIC [1] [µg/mL]	CC50 at 72 h [2] [µg/mL]	further results
O=C(NN1CCN(c2nc(=O)c3cc(C(F)(F)F)cc([N+](=O)[O-])c3s2)CC1)C1CCCCC1	0.473 (≈ 0.974 µM)		
O=c1nc(NN2CCN(CC3CCCCC3)CC2)sc2c([N+](=O)[O-])cc(C(F)(F)F)cc12	> 1		
CON=C1CCC(CN(C)N2CCN(c3nc(=O)c4cc(C(F)(F)F)cc([N+](=O)[O-])c4s3)CC2)CC1 (stereo unspecified)	0.025 (≈ 0.0473 µM)		
O=c1nc(N2CCN(NCc3cccc(C(F)(F)F)c3)CC2)sc2c([N+](=O)[O-])cc(C(F)(F)F)cc12	< 0.016	> 64	
CC(c1ccc(OC(F)(F)F)cc1)N(C)N1CCN(c2nc(=O)c3cc(C(F)(F)F)cc([N+](=O)[O-])c3s2)CC1 (stereo unspecified)	< 0.016	> 64	MRT [3]: 2.66 h; Cmax [4]: 944 ng/mL; Tmax [5]: 0.833 h; half-life [6]: 3.89 h; AUC(0-inf) [7]: 2870 ng·h/mL; inhibition at 10 µM (hERG (KCNH2)): 46.9%
O=c1nc(N2CCN(NCC3CCCCC3)CC2)sc2c([N+](=O)[O-])cc(C(F)(F)F)cc12	< 0.016	29.3 (≈ 62.1 µM)	inhibition at 10 µM (hERG (KCNH2)): 64.4%
C/C(=N\N1CCN(c2nc(=O)c3cc(C(F)(F)F)cc([N+](=O)[O-])c3s2)CC1)c1ccc(OC(F)(F)F)cc1	< 0.016	> 64	
O=c1nc(N2CCN(N(CC3CCCC3)CC3CCCC3)CC2)sc2c([N+](=O)[O-])cc(C(F)(F)F)cc12	0.0803 (≈ 0.149 µM)		
CON=C1CCC(NN2CCN(c3nc(=O)c4cc(C(F)(F)F)cc([N+](=O)[O-])c4s3)CC2)CC1 (stereo unspecified)	0.028 (≈ 0.0559 µM)		
CC(C)CNN1CCN(c2nc(=O)c3cc(C(F)(F)F)cc([N+](=O)[O-])c3s2)CC1	0.0281 (≈ 0.0651 µM)		
O=C(NN1CCN(c2nc(=O)c3cc(C(F)(F)F)cc([N+](=O)[O-])c3s2)CC1)c1ccc(OC(F)(F)F)cc1	0.965 (≈ 1.71 µM)		
O=c1nc(N2CCN(NCc3ccc(C(F)(F)F)cc3)CC2)sc2c([N+](=O)[O-])cc(C(F)(F)F)cc12	< 0.016	> 64	
CCC(CC)CN(CC(CC)CC)N1CCN(c2nc(=O)c3cc(C(F)(F)F)cc([N+](=O)[O-])c3s2)CC1	0.49 (≈ 0.902 µM)		
O=c1nc(N2CCN(NCc3ccc(O)cc3)CC2)sc2c([N+](=O)[O-])cc(C(F)(F)F)cc12	0.9 (≈ 1.87 µM)		
O=c1nc(N2CCN(NS(=O)(=O)C3CCCCC3)CC2)sc2c([N+](=O)[O-])cc(C(F)(F)F)cc12	> 1		
O=c1nc(N2CCN(NCc3cc(F)cc(F)c3)CC2)sc2c([N+](=O)[O-])cc(C(F)(F)F)cc12	< 0.016	> 64	
CON=C1CCC(CNN2CCN(c3nc(=O)c4cc(C(F)(F)F)cc([N+](=O)[O-])c4s3)CC2)CC1 (stereo unspecified)	0.057 (≈ 0.111 µM)		
O=c1nc(N2CCN(NCCC3CCCCC3)CC2)sc2c([N+](=O)[O-])cc(C(F)(F)F)cc12	< 0.016	> 64	inhibition at 10 µM (hERG (KCNH2)): 76.4%
CC(C)(C)c1ccc(CNN2CCN(c3nc(=O)c4cc(C(F)(F)F)cc([N+](=O)[O-])c4s3)CC2)cc1	< 0.016	> 64	
NNC(=O)c1ccncc1 [ISONIAZID]	0.0366 (≈ 0.267 µM)		
O=c1nc(N2CCN(CC3CCCCC3)CC2)sc2c([N+](=O)[O-])cc(C(F)(F)F)cc12 [MACOZINONE]	< 0.016	> 64	
CO[C@H]1/C=C/O[C@@]2(C)Oc3c(C)c(O)c4c(O)c(c(/C=N/N5CCN(C)CC5)c(O)c4c3C2=O)NC(=O)/C(C)=C\C=C\[C@H](C)[C@H](O)[C@@H](C)[C@@H](O)[C@@H](C)[C@H](OC(C)=O)[C@@H]1C [RIFAMPIN]	0.0382 (≈ 0.0464 µM)		
